The text below walks through data of ChEMBL document CHEMBL1671858, “Coprevalence of plasmid-mediated quinolone resistance determinants QepA, Qnr, and AAC(6')-Ib-cr among 16S rRNA methylase RmtB-producing Escherichia coli isolates from pigs” (2008).

Format in all cases: functional
The test system of test [1] is Escherichia coli. Briefly: Antimicrobial activity against Escherichia coli isolate GZ5 PFGE type B harboring qepA gene by agar dilution method. For orientation: In agar dilution, organisms are placed on agar that contains the substance at set levels.
Test [2] has as its system Escherichia coli. Briefly: Antimicrobial activity against Escherichia coli isolate GZ6 PFGE type B harboring qepA gene by agar dilution method.
The subject of test [3] is Escherichia coli. Briefly: Antimicrobial activity against Escherichia coli isolate GZ9 PFGE type D harboring qepA gene by agar dilution method.
The subject of test [4] is Escherichia coli. Briefly: Antimicrobial activity against Escherichia coli isolate GZ13 PFGE type F harboring qepA gene by agar dilution method.
Test [5] concerns Escherichia coli. Briefly: Antimicrobial activity against Escherichia coli isolate GZ15 PFGE type G harboring qepA gene by agar dilution method.
The subject of test [6] is Escherichia coli. Briefly: Antimicrobial activity against Escherichia coli isolate CQ4 PFGE type J1 harboring qepA gene by agar dilution method.
Test [7] relates to Escherichia coli. Briefly: Antimicrobial activity against Escherichia coli isolate CQ10 PFGE type L harboring qepA gene by agar dilution method.
Test [8] has as its system Escherichia coli. The test is described as follows: Antimicrobial activity against Escherichia coli isolate GZ7 PFGE type N harboring qepA gene by agar dilution method.
Test [9] concerns Escherichia coli. The test is described as follows: Antimicrobial activity against Escherichia coli isolate CQ12 PFGE type Q harboring qepA gene by agar dilution method.
Test [10] concerns Escherichia coli. The test is described as follows: Antimicrobial activity against Escherichia coli isolate GZ10 PFGE type R harboring qepA gene by agar dilution method.
Test [11] concerns Escherichia coli. Briefly: Antimicrobial activity against Escherichia coli isolate GZ4 transconjugant harboring 16S rRNA methylase RmtB and qepA by agar dilution method relative to recipient strain.
In test [12] the test system is Escherichia coli. Briefly: Antimicrobial activity against Escherichia coli isolate GZ5 transconjugant harboring 16S rRNA methylase RmtB and qepA by agar dilution method relative to recipient strain.
Test [13] relates to Escherichia coli. The test is described as follows: Antimicrobial activity against Escherichia coli isolate GZ12 transconjugant harboring 16S rRNA methylase RmtB and qepA by agar dilution method relative to recipient strain.
The test system of test [14] is Escherichia coli. The test is described as follows: Antimicrobial activity against Escherichia coli isolate CQ14 transconjugant harboring 16S rRNA methylase RmtB and qepA by agar dilution method relative to recipient strain.
The subject of test [15] is Escherichia coli. The test is described as follows: Antimicrobial activity against Escherichia coli isolate GZ7 transconjugant harboring 16S rRNA methylase RmtB and qepA and qnrS1 by agar dilution method relative to recipient strain.
For test [16], the system named is Escherichia coli. The test is described as follows: Antimicrobial activity against Escherichia coli isolate CQ22 transconjugant harboring 16S rRNA methylase RmtB and qnrS1 by agar dilution method relative to recipient strain.
Test [17] concerns Escherichia coli. Briefly: Antimicrobial activity against Escherichia coli isolate CQ6 transconjugant harboring 16S rRNA methylase RmtB and qepA, qnrS2, aac(6')-Ib-cr gene by agar dilution method relative to recipient strain.
Test [18] has as its system Escherichia coli. Briefly: Antimicrobial activity against Escherichia coli isolate GZ10 transconjugant harboring 16S rRNA methylase RmtB and qepA, aac(6')-Ib-cr gene by agar dilution method relative to recipient strain.
Test [19] has as its system Escherichia coli. Briefly: Antimicrobial activity against Escherichia coli isolate CQ1 transconjugant harboring 16S rRNA methylase RmtB and qnrB6 by agar dilution method relative to recipient strain.

≈ marks a conversion by molar mass, not a printed value.

A word on the MIC: it is the least concentration at which growth counts as inhibited. A lower MIC goes with inhibition by little substance. Consider `CCN1CCN(c2cc3c(cc2F)c(=O)c(C(=O)O)cn3C2CC2)CC1` [ENROFLOXACIN], for which the minimal inhibitory concentration (MIC) was 16 µg/mL (≈ 44.5 µM) with Escherichia coli [1]; 16 µg/mL (≈ 44.5 µM) with Escherichia coli [2]; 32 µg/mL (≈ 89 µM) with Escherichia coli [3]; 8 µg/mL (≈ 22.3 µM) against Escherichia coli [4]; 8 µg/mL (≈ 22.3 µM) against Escherichia coli [5]; 0.03 µg/mL (≈ 0.0835 µM) in the test on Escherichia coli [6]. For the same compound, the MIC against Escherichia coli [7] was found to be 0.25 µg/mL (≈ 0.696 µM); in the test with Escherichia coli [8], 32 µg/mL (≈ 89 µM); against Escherichia coli [9], 2 µg/mL (≈ 5.56 µM); in the test with Escherichia coli [10], 16 µg/mL (≈ 44.5 µM). In addition, the “fold change (FC)” value is 4 in the test with Escherichia coli [11]; 8 in the test with Escherichia coli [12]; 4 in the test with Escherichia coli [13]; 2 with Escherichia coli [14]; 1 with Escherichia coli [15]; 2 with Escherichia coli [16]. Moreover, the “fold change (FC)” value is given as 2 with Escherichia coli [17], 4 with Escherichia coli [18] and 1 in the test with Escherichia coli [19].
